# Residues, ends and D or L forms follow the SMILES beside them.
# System: full-thickness corneal incision
# Conditions: rabbit, in vivo
# Procedure: Animal Preparation and Procedure:
# Before each procedure, the rabbits were anesthetized with a subcutaneous injection of a mixture of ketamine hydrochloride (50-80 mg/kg) and xylazine hydrochloride (5-9 mg/kg). The animal was prepared for sterile surgery conducted under aseptic conditions. Periorbital area was cleaned using 5% povidone iodine solution and a drop of this solution was instilled into the fornix and a speculum was used to hold the eyelids open. Using corneal blade (Keratome 3.2 mm), a clear corneal full-thickness tunnel was created in the same manner as in human phacoemulsification surgery. To prevent the globe collapse after corneal tunnel creation, a small amount of viscoelastic was injected in the anterior chamber through a paracentesis. Gentamicin 25 mg, and dexamethasone 2 mg were injected subconjunctivally. Post-operatively, analgesia was administered. Animals allocated to the treatment group were treated with 1 drop (approximately 50 μl) of the active drug (0.03% or 0.3% Nle3 A(1-7) in 2% hydroxyethyl cellulose in 0.05 M phosphate buffer, pH 6.5) under investigation instilled into the conjunctival sac daily (using a dropper throughout the follow-up period. On the other hand, animals allocated to the control group will be treated with vehicle (2% hydroxyethyl cellulose in 0.05 M phosphate buffer, pH 6.5) eyedrops daily throughout the follow-up period.
# These ocular follow-up examinations were done while the animal was under anesthesia as described above. Anterior segment imaging includes red free picture and anterior segment fluorescein imaging using Spectralis (Heildelberg Engineering, Germany) where sequential photos are taken after one drop of 10% fluorescein (Akorn Abit Springs, La.) was instilled in the conjunctival sac and a slight pressure was applied to the globe. This is more commonly known as Seidel's test in which fluorescein strip containing 10% fluorescein was applied topically to the affected area and was examined with a cobalt blue filter. At this point, the fluorescein appears green in color. Any changes in color or surface of the fluorescence area indicate the presence of conical leakage. This imaging data were used to assess the degree of corneal wound healing as well as extent of wound leak. Measurement of the intraocular pressure was performed using Tonopen-AVIVA (TPA, Reichert Inc.).
# The injury was also imaged using involved using a Heidelberg Retina Tomograph (HRT) instrument. This is a confocal scanning laser ophthalmoscope which was converted into a confocal corneal microscope using an additional microscope lens which attached to the standard lens. This additional lens enabled the HRT to image cells and cell layers within the cornea to allow an in-life phase assessment of the healing and structure of the cornea to allow detailed views of the conical structure and pathology.
smiles,measurement,value
"CCCC[C@H](NC(=O)[C@H](CCCNC(=N)N)NC(=O)[C@@H](N)CC(=O)O)C(=O)N[C@@H](Cc1ccc(O)cc1)C(=O)N[C@H](C(=O)N[C@@H](Cc1c[nH]cn1)C(=O)N1CCC[C@H]1C(=O)O)[C@@H](C)CC [Nle3-A(1-7), Asp-Arg-Nle-Tyr-Ile-His-Pro] (HELM PEPTIDE1{D.R.[Nle].Y.I.H.P}$$$$V2.0)",Complications,None
same,Fundus Exam & Fluorescein angiography,Normal
same,IOP,Normal
same,change in intraocular pressure,no change
same,fundus examination and fluorescein angiography,normal

# Source: patent publication US9844578B2, “Accelerated healing of eye injuries by angiotensin peptides” (UNIVERSITY OF SOUTHERN CALIFORNIA, priority 2013, dated 2017)
